Results reported in the supplement of paper PMC11208160.

Assay: recombinant UMI read abundance after kanamycin selection (control-corrected) (log10(CPM+1)); higher = more efficient recombination; extreme values may be limits of the assay; sequences stand for … in AGTGCAGAGAAAATCGGCCAGTTTTCTCTGCCTGCAGTCCGCATGCCGTGGGACCCCTTGGGTTCTAACCTGTTGCCTAGATTTATGCAGCGGACTGCCTTTCTCCCAAAGTGATAAACCGG…AGGTTGGTTTCACT; site = the 11-nt donor
Experimental: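 Pooled E. coli donor-specificity screen for the IS621 bridge recombinase. Each library member carries a reprogrammed 11-nt donor and a full-length LE bridge RNA expressed in cis from the natural promoter, with a paired donor-binding loop (8-nt LDG + 4-nt RDG) and a target-binding loop fixed to T5. It is co-electroporated with a T5 target plasmid; recombinase is induced with 0.07 mM IPTG and recombinants are selected on kanamycin. UMIs are counted as CPM, averaged over two biological replicates and corrected by the unselected control. Molecule = full bridge RNA written as DNA, built from the T5 scaffold: LDG = donor specificity nt 1-8, RDG = reverse complement of nt 8-11.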
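Note: IS621 bridge recombinase in Escherichia coli cells against a fixed T5 target plasmid.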

Going from “AATTATCCATGGACCGGTTTTCCCGGTAATCCGTATTTGGA (site AATTATGCTTC)” to “AATTATCCATGGACCGGTTTTCCCGGTAATCCGTATTTGGA (site AATTATTCTTC)”, the “recombinant UMI read abundance (log10)” value rises from 0.0173 to 0.322.

Going from “AATTATGCATGGACCGGTTTTCCCGGTAATCCGTATTTGGA (site AAATATGCTTC)” to “AATTATGCATGGACCGGTTTTCCCGGTAATCCGTATTTGGA (site AACTATGCTTC)”, the “recombinant UMI read abundance (log10)” value falls from 1.34 to 1.02.

First: AATTATGCATGGACCGGTTTTCCCGGTAATCCGTATTTGGA (site AAGTATGCTTC)
Second: AATTATGCATGGACCGGTTTTCCCGGTAATCCGTATTTGGA (site AATAATGCTTC)
The “recombinant UMI read abundance (log10)” value of the first is higher: 1.19 for the first, 0.535 for the second.

“AATTATGCATGGACCGGTTTTCCCGGTAATCCGTATTTGGA (site AATCATGCTTC)” and “AATTATGCATGGACCGGTTTTCCCGGTAATCCGTATTTGGA (site AATGATGCTTC)” are within 0.2 log units of each other in “recombinant UMI read abundance (log10)” value: 0.445 for the first, 0.482 for the second.

“AATTATGCATGGACCGGTTTTCCCGGTAATCCGTATTTGGA (site AATTAAGCTTC)” and “AATTATGCATGGACCGGTTTTCCCGGTAATCCGTATTTGGA (site AATTACGCTTC)” are within 0.2 log units of each other in “recombinant UMI read abundance (log10)” value: 0.54 for the first, 0.439 for the second.

First: AATTATGCATGGACCGGTTTTCCCGGTAATCCGTATTTGGA (site AATTAGGCTTC)
Second: AATTATGCATGGACCGGTTTTCCCGGTAATCCGTATTTGGA (site AATTATACTTC)
The “recombinant UMI read abundance (log10)” value of the first is lower: 0.38 for the first, 0.816 for the second.

Compared with “AATTATGCATGGACCGGTTTTCCCGGTAATCCGTATTTGGA (site AATTATCCTTC)”, “AATTATGCATGGACCGGTTTTCCCGGTAATCCGTATTTGGA (site AATTATGCTAC)” is lower in “recombinant UMI read abundance (log10)” value: 0.447 for the first, 0.0199 for the second.

“AATTATGCATGGACCGGTTTTCCCGGTAATCCGTATTTGGA (site AATTATGCTCC)” and “AATTATGCATGGACCGGTTTTCCCGGTAATCCGTATTTGGA (site AATTATGCTGC)” are within 0.2 log units of each other in “recombinant UMI read abundance (log10)” value: 0.0288 for the first, 0 for the second.

First: AATTATGCATGGACCGGTTTTCCCGGTAATCCGTATTTGGA (site AATTATGCTTA)
Second: AATTATGCATGGACCGGTTTTCCCGGTAATCCGTATTTGGA (site AATTATGCTTC)
The “recombinant UMI read abundance (log10)” value of the first is lower: 0.00642 for the first, 0.373 for the second.

Compared with “AATTATGCATGGACCGGTTTTCCCGGTAATCCGTATTTGGA (site AATTATGCTTG)”, “AATTATGCATGGACCGGTTTTCCCGGTAATCCGTATTTGGA (site AATTATGCTTT)” is higher in “recombinant UMI read abundance (log10)” value: 0 for the first, 0.359 for the second.

First: AATTATGCATGGACCGGTTTTCCCGGTAATCCGTATTTGGA (site AATTATTCTTC)
Second: AATTATGCATGGACCGGTTTTCCCGGTAATCCGTATTTGGA (site AATTCTGCTTC)
The “recombinant UMI read abundance (log10)” value of the first is higher: 0.941 for the first, 0.313 for the second.

First: AATTATGCATGGACCGGTTTTCCCGGTAATCCGTATTTGGA (site AATTGTGCTTC)
Second: AATTATGCATGGACCGGTTTTCCCGGTAATCCGTATTTGGA (site AATTTTGCTTC)
The “recombinant UMI read abundance (log10)” value of the first is higher: 0.266 for the first, 0.00678 for the second.

“AATTATGCATGGACCGGTTTTCCCGGTAATCCGTATTTGGA (site ACTTATGCTTC)” and “AATTATGCATGGACCGGTTTTCCCGGTAATCCGTATTTGGA (site AGTTATGCTTC)” are within 0.2 log units of each other in “recombinant UMI read abundance (log10)” value: 0.937 for the first, 1.09 for the second.

First: AATTATGCATGGACCGGTTTTCCCGGTAATCCGTATTTGGA (site ATTTATGCTTC)
Second: AATTATGCATGGACCGGTTTTCCCGGTAATCCGTATTTGGA (site CATTATGCTTC)
The “recombinant UMI read abundance (log10)” value of the first is lower: 1.25 for the first, 1.51 for the second.

“AATTATGCATGGACCGGTTTTCCCGGTAATCCGTATTTGGA (site GATTATGCTTC)” and “AATTATGCATGGACCGGTTTTCCCGGTAATCCGTATTTGGA (site TATTATGCTTC)” are within 0.2 log units of each other in “recombinant UMI read abundance (log10)” value: 0.983 for the first, 0.862 for the second.

Compared with “AATTATGCATGGACCGGTTTTCCCGGTAATCCGTATTTGGT (site AATTATGCTAC)”, “AATTATGCATGGACCGGTTTTCCCGGTAATCCGTATTTGGT (site AATTATGCTCC)” is lower in “recombinant UMI read abundance (log10)” value: 2.02 for the first, 0.00684 for the second.
